Results published in US20040049072A1, “RXR modulators with improved pharmacologic profile” (priority 1999, published 2004).
“Also recorded” adds a separate entry of the source.

Biological target: T1, RXRα homodimer (RXR:RXR) (Homo sapiens, UniProt P19793)
T1 sequence (P19793 1-462): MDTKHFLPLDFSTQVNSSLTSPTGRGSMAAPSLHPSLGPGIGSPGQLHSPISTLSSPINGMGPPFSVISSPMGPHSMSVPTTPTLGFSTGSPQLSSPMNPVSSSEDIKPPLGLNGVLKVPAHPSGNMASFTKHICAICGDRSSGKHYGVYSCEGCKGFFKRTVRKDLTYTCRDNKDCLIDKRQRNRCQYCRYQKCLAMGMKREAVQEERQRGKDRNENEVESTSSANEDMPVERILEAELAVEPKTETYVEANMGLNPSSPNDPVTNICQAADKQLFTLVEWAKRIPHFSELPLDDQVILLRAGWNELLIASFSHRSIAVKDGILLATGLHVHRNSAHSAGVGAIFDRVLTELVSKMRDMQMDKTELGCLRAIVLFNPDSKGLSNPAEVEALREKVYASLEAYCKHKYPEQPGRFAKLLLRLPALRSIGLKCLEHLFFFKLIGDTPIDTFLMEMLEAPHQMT
Experiment: RXR homodimer co-transfection assay in CV-1 cells
Format: cell-based
Conditions: Table 3 c2; mean of n > 3
Source text: In the co-transfection assay, cloned cDNA for one or more IRs (e.g., human RARα, RXRα, or PPARγ), alone or in combination (i.e. for heterodimer assays) under the control of a constitutive promoter (e.g., the SV 40, RSV or CMV promoter) is introduced by transfection (a procedure to introduce exogenous genes into cells) into a background cell substantially devoid of endogenous IRs. These introduced gene(s) direct the recipient cells to make the IR protein(s) of interest. A further gene is also introduced (co-transfected) into the same cells in conjunction with the IR gene(s). This further gene, comprising the cDNA for a reporter protein, such as firefly luciferase (LUC), controlled by an appropriate hormone responsive promoter containing a hormone response element (HRE). This reporter plasmid functions as a reporter for the transcriptional-modulating activity of the target IR(s). Thus, the reporter acts as a surrogate for the products (mRNA then protein) normally expressed by a gene under control of the target receptor(s) and their native hormone(s).
Exposing the transfected cells to an agonist ligand compound increases reporter activity in the transfected cells. This activity can be conveniently measured, e.g., by increasing luciferase production and enzymatic activity, which reflects compound-dependent, IR-mediated increases in reporter transcription. […] Increasing concentrations of an antagonist will decrease the reporter signal (e.g., luciferase production). The co-transfection assay is therefore useful to detect both agonists and antagonists of specific IRs. Furthermore, it determines not only whether a compound interacts with a particular IR, but whether this interaction mimics (agonizes) or blocks (antagonizes) the effects of native or synthetic regulatory molecules on target gene expression, as well as the specificity and strength of this interaction.
The receptor expression plasmid was cotransfected along with a reporter plasmid at 50 ng/well, the internal control plasmid pRS-β-Gal at 50 ng/well and filler DNA, pGEM, at 90 ng/well.
Six hours after transfection, media was removed and the cells were washed with phosphate-buffered saline (PBS). Media containing compounds of the present invention in concentrations ranging from 10^−10 to 10^−5 M were added to the cells. […] Retinoids were dissolved in dimethylsulfoxide for use in the transcriptional activation assays. Two to three replicates were used for each sample. Transfections and subsequent procedures were performed on a Biomek 1000 automated workstation.
After 40 hours, the cells were washed with PBS, lysed with a detergent-based buffer and assayed for LUC and β-Gal activities using a luminometer or spectrophotometer, respectively. For each replicate, the normalized response (NR) was calculated as: […]
The mean and standard error of the mean (SEM) of the NR were calculated. Data were plotted as the response of the compound compared to the reference compounds over the range of the dose-response curve. […] Antagonist activity was determined by testing the amount of LUC expression in the presence of the RXR agonists described above at the EC50 concentration for such known compounds. […] In addition, the efficacy of antagonists was determined as a function (%) of maximal inhibition.

SMILES | RXRα Homodimer Cotransfection Assay Agonist Efficacy (%)
CCCOc1c(/C(C)=C/C=C/C(C)=C/C(=O)O)cc(C(C)(C)C)cc1C(C)(C)C [Compound L3] | 2%

Same assay, conditions: Table 3 c4; in presence of 3.2×10^−8 M LGD1069

SMILES | RXRα Homodimer Cotransfection Assay Agonist Efficacy (%)
CCCOc1c(/C(C)=C/C=C/C(C)=C/C(=O)O)cc(C(C)(C)C)cc1C(C)(C)C [Compound L3] | 90%

Same assay, conditions: cotransfection assay

SMILES | activity on the RXR:RXR homodimer
CCCOc1c(/C(C)=C/C=C/C(C)=C/C(=O)O)cc(C(C)(C)C)cc1C(C)(C)C [Compound L3] | highly efficacious and potent antagonist activity with little or no agonist activity

Same assay, conditions: in presence of LGD1069; not calculated if efficacy <10%; read-out: RXRα Homodimer Cotransfection Assay Antagonist IC50

SMILES | IC50
CCCOc1c(/C(C)=C/C=C/C(C)=C/C(=O)O)cc(C(C)(C)C)cc1C(C)(C)C [Compound L3] | 5 nM

Same assay, conditions: maximal repression (100%) in presence of 32 nM LGD1069

SMILES | RXR:RXR CV-1 (%) Antag.
CCCOc1c(/C(C)=C/C=C/C(C)=C/C(=O)O)cc(C(C)(C)C)cc1C(C)(C)C [Compound L3] | 90%

Same assay, conditions: maximal response relative to ATRA

SMILES | RXR:RXR CV-1 (%) Ag.
CCCOc1c(/C(C)=C/C=C/C(C)=C/C(=O)O)cc(C(C)(C)C)cc1C(C)(C)C [Compound L3] | 2%

Test system: db/db mouse
Experiment: db/db mouse study (rodent model of Type II diabetes)
Conditions: plasma glucose, % correction relative to lean values, day 14; 100 mg/kg daily oral gavage
Protocol: Mice (obtained from Jackson Laboratory), ZDF rats (obtained from Genetic Models Inc.) and fa/fa rats (obtained from either Charles River, or Harlan) were maintained on 12-hour light/dark cycle. […] Compounds were administered at the specified doses by oral gavage on the morning of each day of any experiment. Blood samples were obtained 3 hours after dosing from fed animals under anesthesia and collected into heparinized capillary tubes from the tail vein.

SMILES | db/db mouse Glu. (D 14)
CCCOc1c(/C(C)=C/C=C/C(C)=C/C(=O)O)cc(C(C)(C)C)cc1C(C)(C)C [Compound L3] | 75%

Same assay, conditions: plasma triglycerides, % correction relative to lean values, day 14; NC = no change

SMILES | db/db mouse Trigs. (D 14)
CCCOc1c(/C(C)=C/C=C/C(C)=C/C(=O)O)cc(C(C)(C)C)cc1C(C)(C)C [Compound L3] | 133%

Same assay, conditions: rodent models of Type II Diabetes

SMILES | effect on the thyroid hormone axis | insulin sensitizing activity with thyroid axis suppression and triglyceride elevations
CCCOc1c(/C(C)=C/C=C/C(C)=C/C(=O)O)cc(C(C)(C)C)cc1C(C)(C)C [Compound L3] | absence of detectable suppression of the thyroid hormone axis; also recorded: does not | maintain the desirable insulin sensitizing activity and eliminate or reduce both the suppression of the thyroid axis and triglyceride elevations; also recorded: maintain the desirable insulin sensitizing activity and minimize both the suppression of the thyroid axis and triglyceride elevations

Biological target: T2, RXRα:RAR heterodimer (Homo sapiens, UniProt P19793)
T2 construct: expressed in transfected cells; host or cells: CV-1 cells
T2 sequence (P19793 1-462): T1 sequence (P19793 1-462)
Experiment: RXR:RAR heterodimer co-transfection assay in CV-1 cells
Format: cell-based
Conditions: CV-1, read-out: RXR:RAR CV-1 (%) Ag.
Protocol: For determination of agonist activity in the context of the RXR:RAR heterodimer or the RXR:PPARγ heterodimer, media containing compounds of the present invention in concentrations ranging from 10^−10 to 10^−5 M were added to the cells.
Compounds of the present invention were also tested for the ability to synergize with a PPARγ agonist in the context of an RXR heterodimer. […] Efficacy of the compounds of the present invention in the agonist and synergy assays was calculated as the maximum response obtained over the range of the dose response curve relative to the maximum response obtained by the reference agonist. Antagonist efficacy was determined as a function (%) of maximal inhibition.
However, when RAR is occupied, typical RXR agonists activate the heterodimer. […] To examine the effects of the compounds of the present invention on the transcriptional properties of the RXR:RAR heterodimer, a heterodimer cotransfection assay as described above was employed.

SMILES | Emax
CCCOc1c(/C(C)=C/C=C/C(C)=C/C(=O)O)cc(C(C)(C)C)cc1C(C)(C)C [Compound L3] | 5%

Same assay, conditions: CV-1, read-out: RXRα:RAR Heterodimer Cotransfection Assay Agonist Efficacy (%)

SMILES | Emax
CCCOc1c(/C(C)=C/C=C/C(C)=C/C(=O)O)cc(C(C)(C)C)cc1C(C)(C)C [Compound L3] | 5%

Same assay, conditions: antagonist assay

SMILES | antagonist activity on the RXR:RAR heterodimer
CCCOc1c(/C(C)=C/C=C/C(C)=C/C(=O)O)cc(C(C)(C)C)cc1C(C)(C)C [Compound L3] | significant RXR:RAR antagonist activity

Same assay, conditions: comparison of L3 with L2

SMILES | RXR:RAR antagonist activity relative to L2
CCCOc1c(/C(C)=C/C=C/C(C)=C/C(=O)O)cc(C(C)(C)C)cc1C(C)(C)C [Compound L3] | approximately twice the RXR:RAR antagonist activity as L2

Same assay, conditions: compound alone

SMILES | agonist activity on the RXR:RAR heterodimer
CCCOc1c(/C(C)=C/C=C/C(C)=C/C(=O)O)cc(C(C)(C)C)cc1C(C)(C)C [Compound L3] | not active as RXR:RAR agonists

Same assay, conditions: maximal repression (100%) in presence of 10 nM TTNPB

SMILES | RXR:RAR CV-1 (%) Antag.
CCCOc1c(/C(C)=C/C=C/C(C)=C/C(=O)O)cc(C(C)(C)C)cc1C(C)(C)C [Compound L3] | 84%

Same assay, conditions: relative to maximal repression (100%) in presence of 10 nM TTNPB

SMILES | RXRα:RAR Heterodimer Cotransfection Assay Antagonist Efficacy (%)
CCCOc1c(/C(C)=C/C=C/C(C)=C/C(=O)O)cc(C(C)(C)C)cc1C(C)(C)C [Compound L3] | 84%

Biological target: T3, RXRα (Homo sapiens, UniProt P19793)
T3 sequence (P19793 1-462): T1 sequence (P19793 1-462)
Experiment: RXRα binding (competition with tritiated LGD1069)
Conditions: Table 3; mean of n > 3; read-out: RXRα Binding Ki
Protocol: Non-specific binding was defined as that binding remaining in the presence of 500 nM of the appropriate unlabelled compound. At the end of the incubation period, bound ligand was separated from free. The amount of bound tritiated retinoid was determined by liquid scintillation counting of an aliquot (700 μL) of the supernatant fluid or the hydroxylapatite pellet.
After correcting for non-specific binding, IC50 values were determined. […] The IC50 value was determined graphically from a log-logit plot of the data. The Ki values were determined by application of the Cheng-Prussof equation to the IC50 values, the labeled ligand concentration and the Kd of the labeled ligand.

SMILES | Ki
CCCOc1c(/C(C)=C/C=C/C(C)=C/C(=O)O)cc(C(C)(C)C)cc1C(C)(C)C [Compound L3] | 1.1 nM

Same assay, conditions: from IC50 by Cheng-Prussof equation, tritiated LGD1069; read-out: Bind RXRα Ki

SMILES | Ki
CCCOc1c(/C(C)=C/C=C/C(C)=C/C(=O)O)cc(C(C)(C)C)cc1C(C)(C)C [Compound L3] | 1 nM
